SMILES strings stand for the structures.

Test [1] deals with T1, Full length DGKα (D21-10BG, SignalChem) (Homo sapiens, UniProt P23743).
T1 construct: Full length DGKα (D21-10BG, SignalChem); purchased SignalChem D21-10BG
The test is described as follows: Biochemical DGK IC50 assay (ADP-Glo, lipid micelle substrate), DGKα. Particulars: 7.5 nM enzyme, 140 μM ATP, 80 μM DAG, 1 hour preincubation, 1 hour reaction, room temperature, read-out: IC50s for DGKα. The procedure, abridged: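 Full-length enzyme was assayed by ADP-Glo on DAG/PS lipid micelles at room temperature in HEPES/MgCl2/CaCl2 buffer with BSA, Na3VO4 and Tween-20, using a 1 h reaction and luminescence read-out.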

In test [2] the target is T2, Full length DGKζ (in-house protein M1-V929) (Homo sapiens, UniProt Q13574).
T2 construct: His (N); TEV cleavage site (N); made in house; host or cells: Sf9 insect cells (baculovirus, Bac-to-Bac)
T2 sequence (Q13574 1-929 isoform Q13574-4): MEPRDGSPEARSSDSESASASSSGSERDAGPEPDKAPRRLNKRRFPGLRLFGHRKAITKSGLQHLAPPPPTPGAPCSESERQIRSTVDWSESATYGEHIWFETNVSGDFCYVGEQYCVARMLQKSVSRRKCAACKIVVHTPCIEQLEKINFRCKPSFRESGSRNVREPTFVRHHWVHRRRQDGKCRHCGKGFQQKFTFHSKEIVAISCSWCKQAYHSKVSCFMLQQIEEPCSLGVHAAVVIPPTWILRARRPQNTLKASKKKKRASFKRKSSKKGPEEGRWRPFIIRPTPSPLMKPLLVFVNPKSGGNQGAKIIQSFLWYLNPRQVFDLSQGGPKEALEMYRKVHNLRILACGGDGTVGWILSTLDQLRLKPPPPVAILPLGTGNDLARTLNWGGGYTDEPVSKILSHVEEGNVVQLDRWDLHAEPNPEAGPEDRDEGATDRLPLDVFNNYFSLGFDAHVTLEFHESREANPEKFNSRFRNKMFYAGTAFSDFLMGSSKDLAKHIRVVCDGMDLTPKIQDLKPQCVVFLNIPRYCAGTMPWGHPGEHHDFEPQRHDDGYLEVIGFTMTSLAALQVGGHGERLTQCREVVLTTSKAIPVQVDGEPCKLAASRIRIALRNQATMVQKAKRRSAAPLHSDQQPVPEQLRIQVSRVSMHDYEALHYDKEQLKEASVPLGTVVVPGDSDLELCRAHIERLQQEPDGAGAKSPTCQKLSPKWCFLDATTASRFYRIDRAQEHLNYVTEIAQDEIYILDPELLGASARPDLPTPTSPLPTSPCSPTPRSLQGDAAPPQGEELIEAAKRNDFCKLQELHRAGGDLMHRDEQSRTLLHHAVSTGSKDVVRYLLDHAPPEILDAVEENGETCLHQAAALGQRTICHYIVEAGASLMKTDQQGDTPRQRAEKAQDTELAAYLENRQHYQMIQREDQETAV
Nature of the test: Biochemical DGK IC50 assay (ADP-Glo, lipid micelle substrate), DGKζ. Particulars: 0.5 nM enzyme, 140 μM ATP, 80 μM DAG, 1 hour preincubation, 1 hour reaction, room temperature, read-out: IC50s for DGKζ. The procedure, abridged: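 In-house full-length human DGKζ, baculovirus-expressed in Sf9 cells, was assayed with a DAG/PS lipid micelle substrate at room temperature. Buffer was 50 mM HEPES, 10 mM MgCl2, 0.01% BSA, 0.1 mM Na3VO4, 0.005% Tween-20, 0.01 mM CaCl2, with final compound 1.55˜10000 nM or 23.3˜150000 nM.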
(In general: ADP-Glo turns the ADP formed in a reaction into a luminescent signal.)

T1 sequence (P23743 whole entry): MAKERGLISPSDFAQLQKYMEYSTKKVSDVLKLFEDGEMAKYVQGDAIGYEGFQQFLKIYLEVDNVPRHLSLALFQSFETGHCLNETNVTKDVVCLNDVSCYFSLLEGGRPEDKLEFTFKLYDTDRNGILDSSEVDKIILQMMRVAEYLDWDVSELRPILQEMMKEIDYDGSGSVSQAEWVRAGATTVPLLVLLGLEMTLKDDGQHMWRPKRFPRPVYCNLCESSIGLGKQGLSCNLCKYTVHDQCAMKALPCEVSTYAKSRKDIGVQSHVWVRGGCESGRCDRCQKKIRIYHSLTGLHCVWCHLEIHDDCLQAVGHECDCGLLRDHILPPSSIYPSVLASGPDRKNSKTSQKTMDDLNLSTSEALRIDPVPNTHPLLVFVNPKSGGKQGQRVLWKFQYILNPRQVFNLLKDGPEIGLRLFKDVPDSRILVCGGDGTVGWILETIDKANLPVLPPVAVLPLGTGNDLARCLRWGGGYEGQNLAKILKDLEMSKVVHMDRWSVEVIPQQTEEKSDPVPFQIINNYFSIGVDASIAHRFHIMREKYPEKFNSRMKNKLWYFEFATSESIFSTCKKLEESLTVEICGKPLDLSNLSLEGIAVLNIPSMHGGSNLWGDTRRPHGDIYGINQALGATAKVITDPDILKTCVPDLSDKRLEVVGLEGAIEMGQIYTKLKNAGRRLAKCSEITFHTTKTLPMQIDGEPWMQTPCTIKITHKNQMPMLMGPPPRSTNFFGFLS

In the case of `[2H]C([2H])([2H])c1nc2ccc(C(C)N3C[C@H](CC)N(c4cc(=O)n(C([2H])([2H])[2H])n5cc(CC#N)nc45)C[C@H]3CC)cc2s1` (single isomer, unassigned) [Compound A97a], the IC50 in test [1] was determined as 79 nM; in test [2], 24 nM.
As for `[2H]C([2H])([2H])c1nc2ccc(C(C)N3C[C@H](CC)N(c4cc(=O)n(C([2H])([2H])[2H])n5cc(CC#N)nc45)C[C@H]3CC)cc2s1` (single isomer, unassigned) [Compound A97b], the IC50 in test [1] was determined as 1160 nM; in test [2], 1150 nM.
The corresponding values for `CCC(c1ccc2nc(C)sc2n1)N1C[C@H](CC)N(c2cc(=O)n(C)n3cc(CC#N)nc23)C[C@H]1C` (single isomer, unassigned) [Compound A98a] are 712 nM and 2940 nM.
The corresponding values for `CCC(c1ccc2nc(C)sc2n1)N1C[C@H](CC)N(c2cc(=O)n(C)n3cc(CC#N)nc23)C[C@H]1C` (single isomer, unassigned) [Compound A98b] are 39 nM and 45 nM.
Take `CCC(c1ccc2nc(C)sc2n1)N1C[C@H](CC)N(c2cc(=O)n(C)n3cc(CC#N)nc23)C[C@H]1CC` (single isomer, unassigned) [Compound A99a]: the IC50 was determined as 196 nM in test [1] and 132 nM in test [2].
The corresponding values for `CCC(c1ccc2nc(C)sc2n1)N1C[C@H](CC)N(c2cc(=O)n(C)n3cc(CC#N)nc23)C[C@H]1CC` (single isomer, unassigned) [Compound A99b] are 21 nM and 11 nM.
The corresponding values for `CCc1nc2ccc(C(C)N3C[C@H](CC)N(c4cc(=O)n(C)n5cc(CC#N)nc45)C[C@H]3CC)cc2s1` (single isomer, unassigned) [Compound A100a] are 297 nM and 19 nM.
On to `CCc1nc2ccc(C(C)N3C[C@H](CC)N(c4cc(=O)n(C)n5cc(CC#N)nc45)C[C@H]3CC)cc2s1` (single isomer, unassigned) [Compound A100b], for which the IC50 in test [1] turned out to be 1060 nM; in test [2] it was 911 nM.
As for `CCc1nc2ccc(C(C)N3C[C@H](C)N(c4cc(=O)n(C)n5cc(CC#N)nc45)C[C@H]3CC)cc2s1` (single isomer, unassigned) [Compound A101a], the IC50 in test [1] stood at 851 nM; in test [2], 29 nM.
The corresponding values for `CCc1nc2ccc(C(C)N3C[C@H](C)N(c4cc(=O)n(C)n5cc(CC#N)nc45)C[C@H]3CC)cc2s1` (single isomer, unassigned) [Compound A101b] are 2360 nM and 1110 nM.
The corresponding values for `CC[C@H]1CN(C(CCOC)c2ccc3nc(C)sc3c2)[C@H](CC)CN1c1cc(=O)n(C)n2cc(CC#N)nc12` (single isomer, unassigned) [Compound A102a] are 378 nM and 46 nM.
The corresponding values for `CC[C@H]1CN(C(CCOC)c2ccc3nc(C)sc3c2)[C@H](CC)CN1c1cc(=O)n(C)n2cc(CC#N)nc12` (single isomer, unassigned) [Compound A102b] are 735 nM and 623 nM.
Consider `CC[C@H]1CN(C(C)c2ccc3cc(F)sc3n2)[C@H](CC)CN1c1cc(=O)n(C)n2cc(CC#N)nc12` (single isomer, unassigned) [Compound A105a], for which the results for the IC50 in test [1] and in test [2] were 195 nM and 706 nM, respectively.
`CC[C@H]1CN(C(C)c2ccc3cc(F)sc3n2)[C@H](CC)CN1c1cc(=O)n(C)n2cc(CC#N)nc12` (single isomer, unassigned) [Compound A105b]: the IC50 was found to be 3.3 nM in test [1] and 48 nM in test [2].
For the compound `CC[C@@H]1CN(c2cc(=O)n(C)n3cc(CC#N)nc23)[C@@H](COC)CN1C(C)c1ccc2nc(C)sc2n1` (single isomer, unassigned) [Compound A108a], the IC50 in test [1] is 6400 nM; in test [2], above 10000 nM.
The corresponding values for `CC[C@@H]1CN(c2cc(=O)n(C)n3cc(CC#N)nc23)[C@@H](COC)CN1C(C)c1ccc2nc(C)sc2n1` (single isomer, unassigned) [Compound A108b] are 510 nM and 182 nM.
Turning to `CC[C@H]1CN(C(C)c2ccc3nc(C4CC4)sc3n2)[C@H](CC)CN1c1cc(=O)n(C)n2cc(CC#N)nc12` (single isomer, unassigned) [Compound A109a], the IC50 in test [1] worked out at 1490 nM; in test [2] it was 1800 nM.
The corresponding values for `CC[C@H]1CN(C(C)c2ccc3nc(C4CC4)sc3n2)[C@H](CC)CN1c1cc(=O)n(C)n2cc(CC#N)nc12` (single isomer, unassigned) [Compound A109b] are 113 nM and 28 nM.
The corresponding values for `CC[C@H]1CN(C(C)c2ccc3nc(CC4CC4)sc3n2)[C@H](CC)CN1c1cc(=O)n(C)n2cc(CC#N)nc12` (single isomer, unassigned) [Compound A110a] are 1070 nM and 1170 nM.
For the compound `CC[C@H]1CN(C(C)c2ccc3nc(CC4CC4)sc3n2)[C@H](CC)CN1c1cc(=O)n(C)n2cc(CC#N)nc12` (single isomer, unassigned) [Compound A110b], the IC50 in test [1] is 61 nM; in test [2] it was 15 nM.
The corresponding values for `CC[C@H]1CN(C(C)c2ccc3nc(C)sc3n2)[C@H](CC)CN1c1c(C#N)c(=O)n(C)n2cc(CC#N)nc12` (single isomer, unassigned) [Compound A112a] are 752 nM and 3500 nM.
With `CC[C@H]1CN(C(C)c2ccc3nc(C)sc3n2)[C@H](CC)CN1c1c(C#N)c(=O)n(C)n2cc(CC#N)nc12` (single isomer, unassigned) [Compound A112b], the IC50 was determined as 60 nM in test [1] and 118 nM in test [2].
The corresponding values for `CC[C@@H]1CN(c2c(C#N)c(=O)n(C)n3cc(CC#N)nc23)[C@@H](C)CN1C(C)c1ccc2nc(C)sc2n1` (single isomer, unassigned) [Compound A113a] are 185 nM and 118 nM.
The corresponding values for `CC[C@@H]1CN(c2c(C#N)c(=O)n(C)n3cc(CC#N)nc23)[C@@H](C)CN1C(C)c1ccc2nc(C)sc2n1` (single isomer, unassigned) [Compound A113b] are 651 nM and 2910 nM.
The corresponding values for `CC#CCc1cn2c(n1)c(N1C[C@@H](CC)N(C(C)c3ccc4nc(C)sc4n3)C[C@@H]1CC)cc(=O)n2C` (single isomer, unassigned) [Compound A115a] are 288 nM and above 10000 nM.
On to `CC#CCc1cn2c(n1)c(N1C[C@@H](CC)N(C(C)c3ccc4nc(C)sc4n3)C[C@@H]1CC)cc(=O)n2C` (single isomer, unassigned) [Compound A115b], for which the IC50 was 2.7 nM in test [1] and 49 nM in test [2].
In the case of `CC#CCc1cn2c(n1)c(N1C[C@@H](CC)N(C(C)c3ccc4nc(C)sc4c3F)C[C@@H]1CC)cc(=O)n2C` (single isomer, unassigned) [Compound A116a], the IC50 in test [1] stood at 118 nM; in test [2], 132 nM.
For the compound `CC#CCc1cn2c(n1)c(N1C[C@@H](CC)N(C(C)c3ccc4nc(C)sc4c3F)C[C@@H]1CC)cc(=O)n2C` (single isomer, unassigned) [Compound A116b], the IC50 is 708 nM in test [1] and above 10000 nM in test [2].
The corresponding values for `CC#CCc1cn2c(n1)c(N1C[C@@H](CC)N(C(C)c3ccc4ncsc4c3F)C[C@@H]1CC)cc(=O)n2C` (single isomer, unassigned) [Compound A117a] are 22 nM and 48 nM.
Consider `CC#CCc1cn2c(n1)c(N1C[C@@H](CC)N(C(C)c3ccc4ncsc4c3F)C[C@@H]1CC)cc(=O)n2C` (single isomer, unassigned) [Compound A117b], for which the values for the IC50 in test [1] and in test [2] were 535 nM and 2000 nM, respectively.
The corresponding values for `CC[C@H]1CN(C(C)c2ccc3nc(C)sc3c2F)[C@H](C)CN1c1cc(=O)n(C)n2cc(CC#N)nc12` (single isomer, unassigned) [Compound A119a] are 2050 nM and 1460 nM.
For `CC[C@H]1CN(C(C)c2ccc3nc(C)sc3c2F)[C@H](C)CN1c1cc(=O)n(C)n2cc(CC#N)nc12` (single isomer, unassigned) [Compound A119b], the IC50 stood at 340 nM in test [1] and 51 nM in test [2].
Regarding `CC[C@H]1CN(C(C)c2ccc3nc(C)sc3n2)[C@H](C)CN1c1cc(=O)n(C)n2cc(CC#N)nc12` (single isomer, unassigned) [Compound A121b], the IC50 is 50 nM in test [1] and 143 nM in test [2].
As for `CC[C@H]1CN(C(C)c2ccc3nc(C)sc3c2)[C@H](CC)CN1c1cc(=O)n(C)n2cc(C=NOC)nc12` (single isomer, unassigned) [Compound A123a], the IC50 in test [1] was determined as 269 nM; in test [2], 4890 nM.
Turning to `CC[C@H]1CN(C(C)c2ccc3nc(C)sc3c2)[C@H](CC)CN1c1cc(=O)n(C)n2cc(C=NOC)nc12` (single isomer, unassigned) [Compound A123bc], the IC50 in test [1] is 131 nM; in test [2], 2390 nM.
Take `CC[C@H]1CN(C(C)c2ccc3nc(C)sc3c2)[C@H](CC)CN1c1cc(=O)n(C)n2cc(C=NOC)nc12` (single isomer, unassigned) [Compound A123d]: the figures for the IC50 in test [1] and in test [2] were 749 nM and above 10000 nM, respectively.
